According to patent publication EP1808172A2, “Botanical extract compositions and methods of use” (The Medical Research and Education Trust, priority 2002, dated 2003):

Tests used:
Type in all cases: cell-based
hERβ = molecular target: T1, hERβ (Homo sapiens, UniProt Q92731); assay: ERE-LUC reporter gene activation in transfected HEK 293 cells, ER beta; settings: 0 to 9 µg/ml, 20 hours
T1 construct: expressed in transfected cells; host or cells: HEK 293 cells (ATCC CRL-1573)
Source text: (§1) HEK 293 cells (ATCC CRL-1573) were transfected with an expression vector for hERα and hERβ respectively, and an ERE-LUC reporter gene (plus a TK-LUC reporter for normalization) following the protocol of Yoon et al ("Differential activation of wild-type and variant forms of estrogen receptor α by synthetic and natural estrogenic compounds using a promoter containing three estrogen-responsive elements", J. Steroid Biochem. & Molecular Biology (2000), 28: pages 25-32).

DU-145 cell cycle = assay: Cell cycle measurement by DNA content flow cytometry, DU-145; settings: DU-145 cells, protocol of Example 3
Experimental: (§2) The cells were washed with phosphate buffered saline (PBS) and fixed in ice-cold 70% ethanol. Aliquots of fixed cells were rehydrated in PBS and stained with 1.0 microgram/milliliter DAPI (4,6-diamidino-2-phenylindole from Eastman Kodak, Rochester, NY), and dissolved in 10 millimolar piperazine-NN-bis-2-ethane-sulfonic acid buffer (Calbiochem, La Jolla, CA) containing 100 millimolar NaCl, 2mM MgCl2 and 0,1% Triton X-100 (Sigma) at pH 6.8 as previously described by Halicka et al. (H. D. Halicka, B. Ardelt, G. Juan, A. Mittelman, S. Chen, F. Traganos and Z. Darzynkiewicz, "Apoptosis and Cell Cycle Effects Induced by Extracts of the Chinese Herbal Preparation of PC SPES", International J. of Oncology (1997), 11: 437-448).
(§3) The cellular DNA content was measured with an ELITE ESP flow cytometer (Coulter Inc., Fl.) using UV laser illumination. The multicycle program was used to deconvolute the DNA frequency histograms to estimate the frequency of cells in different phases of the cell cycle.
A prolongation in the G2M phase leads to the suppression of DU-145 cell proliferation.

LNCaP cell cycle = assay: Cell cycle measurement by DNA content flow cytometry, LNCaP; settings: LNCaP cells, exposed 24-48 hours
Experimental: as §2, §3

hERα = molecular target: T2, hERα (Homo sapiens, UniProt P03372); assay: ERE-LUC reporter gene activation in transfected HEK 293 cells, ER alpha; settings: 0 to 9 µg/ml, 20 hours
T2 construct: expressed in transfected cells; host or cells: HEK 293 cells (ATCC CRL-1573)
Source text: as §1

T1 sequence (Q92731 whole entry): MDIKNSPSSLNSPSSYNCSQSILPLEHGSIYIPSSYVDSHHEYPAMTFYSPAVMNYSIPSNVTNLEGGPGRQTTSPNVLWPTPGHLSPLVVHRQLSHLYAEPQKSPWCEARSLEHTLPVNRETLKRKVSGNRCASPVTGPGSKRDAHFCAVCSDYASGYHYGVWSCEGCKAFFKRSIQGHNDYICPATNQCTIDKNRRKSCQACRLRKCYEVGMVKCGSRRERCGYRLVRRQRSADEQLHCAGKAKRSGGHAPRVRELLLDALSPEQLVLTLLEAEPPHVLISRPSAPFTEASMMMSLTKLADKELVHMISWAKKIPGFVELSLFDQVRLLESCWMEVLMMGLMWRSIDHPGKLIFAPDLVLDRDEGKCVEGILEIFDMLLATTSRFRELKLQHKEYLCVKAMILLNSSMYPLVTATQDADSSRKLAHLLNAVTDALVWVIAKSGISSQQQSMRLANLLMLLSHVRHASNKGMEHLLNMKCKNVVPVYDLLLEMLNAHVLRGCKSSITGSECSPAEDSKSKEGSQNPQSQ
T2 sequence (P03372 whole entry): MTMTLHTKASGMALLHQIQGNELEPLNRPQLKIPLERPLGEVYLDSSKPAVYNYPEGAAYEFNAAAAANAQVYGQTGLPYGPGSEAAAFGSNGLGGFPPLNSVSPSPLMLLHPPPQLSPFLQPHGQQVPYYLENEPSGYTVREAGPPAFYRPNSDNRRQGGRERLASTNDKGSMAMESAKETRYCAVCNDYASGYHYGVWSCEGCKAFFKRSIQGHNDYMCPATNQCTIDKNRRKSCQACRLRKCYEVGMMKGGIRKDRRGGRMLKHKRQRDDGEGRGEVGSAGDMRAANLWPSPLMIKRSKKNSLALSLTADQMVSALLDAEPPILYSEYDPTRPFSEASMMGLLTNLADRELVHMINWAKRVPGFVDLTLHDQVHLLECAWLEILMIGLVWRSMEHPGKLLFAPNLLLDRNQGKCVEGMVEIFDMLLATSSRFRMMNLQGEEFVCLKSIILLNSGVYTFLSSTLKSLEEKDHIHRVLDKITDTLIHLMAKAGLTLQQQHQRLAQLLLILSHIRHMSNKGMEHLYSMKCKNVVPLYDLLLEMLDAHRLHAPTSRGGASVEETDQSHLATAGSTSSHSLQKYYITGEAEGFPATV

| Structure (SMILES) | ERβ-Luc reporter gene activation (hERβ) | effect on the DU-145 cell cycle (DU-145 cell cycle) | effect on G1, S, and G2M phases of the LNCaP cell cycle (LNCaP cell cycle) | ERα-Luc reporter gene activation (hERα) |
| --- | --- | --- | --- | --- |
| COc1c(O)cc(O)c2c(=O)cc(-c3ccccc3)oc12 [Wogonin, 5,7-dihydroxy-8-methoxy-flavone] | activated | prolonged the G2M phase | induced a G1 phase arrest | activated |
| O=C(/C=C/c1ccc(O)cc1)c1ccc(O)cc1O [isoliquiritigenin, 2',4,4'-trihydroxychalcone] | activated | – | induced a G2M phase arrest | activated |
